{"source": "paper PMC5078040", "about": "(Oncotarget, 2016)", "key": {"CDC2L5": {"target": "T1, CDC2L5 (Homo sapiens, UniProt Q14004)", "T1 construct": "purchased DiscoveRx KINOMEscan", "experiment": "KinomeScan", "type": "binding", "settings": "1uM"}, "DCAMKL1": {"target": "T2, DCAMKL1 (Homo sapiens, UniProt O15075)", "T2 construct": "purchased DiscoveRx KINOMEscan", "experiment": "KinomeScan", "type": "binding", "settings": "1uM"}, "[1]": {"target": "T3, RPS6KA5(Kin.Dom.1-N-terminal) (Homo sapiens, UniProt O75582)", "T3 construct": "RPS6KA5(Kin.Dom.1-N-terminal); purchased DiscoveRx KINOMEscan", "experiment": "KinomeScan", "type": "binding", "settings": "1uM"}, "[2]": {"target": "T4, RSK3(Kin.Dom.1-N-terminal) (Homo sapiens, UniProt Q15349)", "T4 construct": "RSK3(Kin.Dom.1-N-terminal); purchased DiscoveRx KINOMEscan", "T4 sequence (Q15349 1-388 limits assumed)": "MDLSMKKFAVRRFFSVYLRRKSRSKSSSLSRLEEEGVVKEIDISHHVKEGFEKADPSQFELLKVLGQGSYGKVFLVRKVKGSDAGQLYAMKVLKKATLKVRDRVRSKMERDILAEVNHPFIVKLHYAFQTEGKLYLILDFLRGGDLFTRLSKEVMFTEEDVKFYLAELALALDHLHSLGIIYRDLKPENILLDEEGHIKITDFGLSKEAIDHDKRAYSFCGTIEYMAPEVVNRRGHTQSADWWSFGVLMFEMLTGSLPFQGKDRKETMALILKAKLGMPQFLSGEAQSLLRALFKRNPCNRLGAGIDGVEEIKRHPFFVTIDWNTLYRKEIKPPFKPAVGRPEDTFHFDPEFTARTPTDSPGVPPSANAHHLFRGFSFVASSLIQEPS", "experiment": "KinomeScan", "type": "binding", "settings": "1uM"}, "BRSK2": {"target": "T5, BRSK2 (Homo sapiens, UniProt Q8IWQ3)", "T5 construct": "purchased DiscoveRx KINOMEscan", "experiment": "KinomeScan", "type": "binding", "settings": "1uM"}, "FES": {"target": "T6, FES (Homo sapiens, UniProt P07332)", "T6 construct": "purchased DiscoveRx KINOMEscan", "experiment": "KinomeScan", "type": "binding", "settings": "1uM"}, "CTK": {"target": "T7, CTK (Homo sapiens, UniProt P42679)", "T7 construct": "purchased DiscoveRx KINOMEscan", "experiment": "KinomeScan", "type": "binding", "settings": "1uM"}, "[3]": {"target": "RPS6KA4(Kin.Dom.2-C-terminal) (Homo sapiens, UniProt O75676)", "sequence (O75676 372-772 limits assumed)": "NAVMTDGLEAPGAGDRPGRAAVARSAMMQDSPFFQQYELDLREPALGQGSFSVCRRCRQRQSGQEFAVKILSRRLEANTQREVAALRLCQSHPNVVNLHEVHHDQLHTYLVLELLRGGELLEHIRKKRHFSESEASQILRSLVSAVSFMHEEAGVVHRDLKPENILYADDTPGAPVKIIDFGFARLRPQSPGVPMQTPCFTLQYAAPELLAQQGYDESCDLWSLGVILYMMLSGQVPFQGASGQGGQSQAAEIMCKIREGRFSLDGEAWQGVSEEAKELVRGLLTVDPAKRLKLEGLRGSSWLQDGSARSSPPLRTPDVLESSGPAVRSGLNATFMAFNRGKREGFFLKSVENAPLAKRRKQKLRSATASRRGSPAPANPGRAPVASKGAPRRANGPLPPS", "experiment": "KinomeScan", "type": "binding", "settings": "1uM"}, "PIM3": {"target": "T8, PIM3 (Homo sapiens, UniProt Q86V86)", "T8 construct": "purchased DiscoveRx KINOMEscan", "experiment": "KinomeScan", "type": "binding", "settings": "1uM"}, "PARP cleavage": {"tested_on": "PARP cleavage", "experiment": "Apoptosis (western-blot)", "type": "cell-based, human", "settings": "within 12 hours", "text": "Then, apoptosis of MOLM13, HT, MEC-1 cells were detected by western-blot using PARP, GAPDH antibody (CST)."}, "PIM1": {"target": "T9, PIM1 (Homo sapiens, UniProt P11309)", "T9 construct": "purchased DiscoveRx KINOMEscan", "experiment": "KinomeScan", "type": "binding", "settings": "1uM"}, "MST4": {"target": "T10, MST4 (Homo sapiens, UniProt Q9P289)", "T10 construct": "purchased DiscoveRx KINOMEscan", "experiment": "KinomeScan", "type": "binding", "settings": "1uM"}, "ULK3": {"target": "T11, ULK3 (Homo sapiens, UniProt Q6PHR2)", "T11 construct": "purchased DiscoveRx KINOMEscan", "experiment": "KinomeScan", "type": "binding", "settings": "1uM"}, "PIK3CA(I800L)": {"target": "T12, PIK3CA(I800L) (Homo sapiens, UniProt P42336, I800L)", "T12 construct": "purchased DiscoveRx KINOMEscan", "T12 sequence (P42336 whole entry I800L)": "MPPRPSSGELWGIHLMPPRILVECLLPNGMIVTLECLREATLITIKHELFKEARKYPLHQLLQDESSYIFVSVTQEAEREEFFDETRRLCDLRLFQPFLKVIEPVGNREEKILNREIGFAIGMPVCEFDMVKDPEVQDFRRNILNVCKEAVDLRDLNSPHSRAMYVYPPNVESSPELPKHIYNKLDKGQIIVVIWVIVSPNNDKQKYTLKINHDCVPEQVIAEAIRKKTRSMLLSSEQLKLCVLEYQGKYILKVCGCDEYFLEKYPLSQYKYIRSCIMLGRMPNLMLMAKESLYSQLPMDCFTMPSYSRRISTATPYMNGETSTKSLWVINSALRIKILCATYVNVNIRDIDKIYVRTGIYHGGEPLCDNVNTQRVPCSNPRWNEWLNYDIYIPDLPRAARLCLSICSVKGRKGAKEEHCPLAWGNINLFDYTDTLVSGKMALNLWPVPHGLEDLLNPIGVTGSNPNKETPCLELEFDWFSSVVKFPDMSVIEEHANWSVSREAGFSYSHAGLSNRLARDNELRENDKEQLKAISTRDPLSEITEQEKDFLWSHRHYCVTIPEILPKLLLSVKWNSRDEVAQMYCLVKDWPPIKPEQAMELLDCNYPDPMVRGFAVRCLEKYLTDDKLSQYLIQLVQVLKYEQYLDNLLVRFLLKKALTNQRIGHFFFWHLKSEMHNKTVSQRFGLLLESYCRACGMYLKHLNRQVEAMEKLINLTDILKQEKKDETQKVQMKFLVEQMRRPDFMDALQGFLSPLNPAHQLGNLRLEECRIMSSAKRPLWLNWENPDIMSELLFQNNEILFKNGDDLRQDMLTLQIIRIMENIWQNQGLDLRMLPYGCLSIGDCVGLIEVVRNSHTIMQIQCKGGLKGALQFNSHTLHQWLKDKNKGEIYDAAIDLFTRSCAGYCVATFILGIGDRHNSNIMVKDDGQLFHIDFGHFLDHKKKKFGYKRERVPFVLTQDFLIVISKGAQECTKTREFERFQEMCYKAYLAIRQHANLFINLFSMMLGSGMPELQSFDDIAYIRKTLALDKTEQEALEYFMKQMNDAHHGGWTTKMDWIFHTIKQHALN", "experiment": "KinomeScan", "type": "binding", "settings": "1uM"}, "EPHA5": {"target": "T13, EPHA5 (Homo sapiens, UniProt P54756)", "T13 construct": "purchased DiscoveRx KINOMEscan", "experiment": "KinomeScan", "type": "binding", "settings": "1uM"}, "[4]": {"target": "T14, RSK2(Kin.Dom.2-C-terminal) (Homo sapiens, UniProt P51812)", "T14 construct": "RSK2(Kin.Dom.2-C-terminal); purchased DiscoveRx KINOMEscan", "experiment": "KinomeScan", "type": "binding", "settings": "1uM"}, "PIK3CA(M1043I)": {"target": "T15, PIK3CA(M1043I) (Homo sapiens, UniProt P42336, M1043I)", "T15 construct": "purchased DiscoveRx KINOMEscan", "T15 sequence (P42336 whole entry M1043I)": "as the sequence (P42336 whole entry I800L) above, with L800I, M1043I counted along it", "experiment": "KinomeScan", "type": "binding", "settings": "1uM"}, "EGFR(L747-T751del,Sins)": {"tested_on": "EGFR(L747-T751del,Sins)", "experiment": "KinomeScan", "type": "binding", "settings": "1uM"}, "PI3Kα [5]": {"target": "T16, PI3Kα (Mus musculus, UniProt P42337)", "T16 construct": "endogenous in cells; host or cells: NIH-3T3", "experiment": "PI3Ks isoform in cell EC50 assay (AKT phosphorylation, Western Blotting)", "type": "cell-based", "settings": "NIH-3T3, 20ng/ml PDGF-BB, read-out: cellular EC50 PI3K Alpha"}, "EGFR(L861Q)": {"target": "T17, EGFR(L861Q) (Homo sapiens, UniProt P00533, L861Q)", "T17 construct": "purchased DiscoveRx KINOMEscan", "T17 sequence (P00533 25-1210 L861Q)": "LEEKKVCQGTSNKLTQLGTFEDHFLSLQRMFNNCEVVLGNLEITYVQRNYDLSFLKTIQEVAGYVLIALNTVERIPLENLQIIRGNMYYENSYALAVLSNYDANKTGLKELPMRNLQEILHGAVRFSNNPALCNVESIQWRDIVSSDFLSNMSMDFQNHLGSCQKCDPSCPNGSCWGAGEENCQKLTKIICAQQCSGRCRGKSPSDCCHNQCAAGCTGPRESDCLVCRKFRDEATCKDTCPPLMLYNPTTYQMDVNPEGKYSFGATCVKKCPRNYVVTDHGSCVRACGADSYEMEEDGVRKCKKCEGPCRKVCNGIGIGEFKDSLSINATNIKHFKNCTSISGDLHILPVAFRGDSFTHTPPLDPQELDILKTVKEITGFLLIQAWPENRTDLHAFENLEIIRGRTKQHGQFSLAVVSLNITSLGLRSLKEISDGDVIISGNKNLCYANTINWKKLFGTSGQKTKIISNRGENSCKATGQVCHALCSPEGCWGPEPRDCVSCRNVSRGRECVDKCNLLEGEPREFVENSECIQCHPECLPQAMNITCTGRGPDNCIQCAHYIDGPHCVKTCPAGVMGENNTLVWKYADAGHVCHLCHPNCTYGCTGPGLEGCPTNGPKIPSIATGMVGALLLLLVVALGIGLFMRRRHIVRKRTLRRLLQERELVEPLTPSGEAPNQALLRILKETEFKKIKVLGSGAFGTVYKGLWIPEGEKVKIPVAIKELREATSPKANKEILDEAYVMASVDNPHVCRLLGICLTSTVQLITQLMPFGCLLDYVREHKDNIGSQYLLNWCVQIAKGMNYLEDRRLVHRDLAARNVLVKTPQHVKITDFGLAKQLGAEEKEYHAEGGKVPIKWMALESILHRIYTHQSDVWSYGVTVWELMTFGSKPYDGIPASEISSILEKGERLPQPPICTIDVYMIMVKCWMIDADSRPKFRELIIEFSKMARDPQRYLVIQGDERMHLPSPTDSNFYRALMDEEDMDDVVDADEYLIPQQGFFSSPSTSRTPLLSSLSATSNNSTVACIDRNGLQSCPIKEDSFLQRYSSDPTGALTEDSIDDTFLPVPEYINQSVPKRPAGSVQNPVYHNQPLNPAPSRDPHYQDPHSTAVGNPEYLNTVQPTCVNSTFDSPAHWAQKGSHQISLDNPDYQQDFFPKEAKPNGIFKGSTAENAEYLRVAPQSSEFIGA", "experiment": "KinomeScan", "type": "binding", "settings": "1uM"}, "PRKG1": {"target": "T18, PRKG1 (Homo sapiens, UniProt Q13976)", "T18 construct": "purchased DiscoveRx KINOMEscan", "experiment": "KinomeScan", "type": "binding", "settings": "1uM"}, "PI3Kα [6]": {"target": "PI3Kα (Homo sapiens, UniProt P42336)", "sequence (P42336 whole entry)": "as the sequence (P42336 whole entry I800L) above, with L800I counted along it", "sequence (P27986 whole entry partner)": "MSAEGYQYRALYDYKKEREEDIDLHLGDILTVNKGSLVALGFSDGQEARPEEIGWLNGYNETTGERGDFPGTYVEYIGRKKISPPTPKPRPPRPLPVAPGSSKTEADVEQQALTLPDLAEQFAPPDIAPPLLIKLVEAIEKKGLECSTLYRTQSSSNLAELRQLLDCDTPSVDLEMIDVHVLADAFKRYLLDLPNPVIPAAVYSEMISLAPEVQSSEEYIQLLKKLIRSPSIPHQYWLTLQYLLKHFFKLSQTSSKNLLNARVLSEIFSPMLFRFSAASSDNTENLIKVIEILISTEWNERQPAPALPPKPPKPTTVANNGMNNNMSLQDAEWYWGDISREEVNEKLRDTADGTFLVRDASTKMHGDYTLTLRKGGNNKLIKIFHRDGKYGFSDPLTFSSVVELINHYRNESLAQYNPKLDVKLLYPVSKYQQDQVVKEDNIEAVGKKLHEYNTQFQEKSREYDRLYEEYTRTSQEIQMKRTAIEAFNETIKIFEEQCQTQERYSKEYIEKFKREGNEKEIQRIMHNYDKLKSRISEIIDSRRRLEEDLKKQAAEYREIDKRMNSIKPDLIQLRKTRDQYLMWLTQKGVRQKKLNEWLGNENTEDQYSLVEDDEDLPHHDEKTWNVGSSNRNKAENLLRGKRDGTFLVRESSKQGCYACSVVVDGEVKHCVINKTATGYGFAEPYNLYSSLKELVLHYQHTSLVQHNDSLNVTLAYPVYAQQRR", "experiment": "biochemical", "experimental": "The reaction in each tube was started immediately by adding ATP and kept going for an hour under 37°C. After the tube cooled for 5 minutes at room temperature, 5 μL solvent reactions were carried out in a 384-well plate. Then 5 μL of ADP-Glo™ reagent was added into each well to stop the reaction and consume the remaining ADP within 40 minutes. At the end, 10 μL of kinase detection reagent was added into the well and incubated for 30 minutes to produce a luminescence signal. Luminescence signal was measured with an automated plate reader (Perkin-Elmer Envision) and each measurement was performed in triplicate."}, "MEK1": {"target": "T19, MEK1 (Homo sapiens, UniProt Q02750)", "T19 construct": "purchased DiscoveRx KINOMEscan", "experiment": "KinomeScan", "type": "binding", "settings": "1uM"}, "PIK3CA(E542K)": {"target": "T20, PIK3CA(E542K) (Homo sapiens, UniProt P42336, E542K)", "T20 construct": "purchased DiscoveRx KINOMEscan", "T20 sequence (P42336 whole entry E542K)": "as the sequence (P42336 whole entry I800L) above, with E542K, L800I counted along it", "experiment": "KinomeScan", "type": "binding", "settings": "1uM"}, "EPHA4": {"target": "T21, EPHA4 (Homo sapiens, UniProt P54764)", "T21 construct": "purchased DiscoveRx KINOMEscan", "T21 sequence (P54764 20-986)": "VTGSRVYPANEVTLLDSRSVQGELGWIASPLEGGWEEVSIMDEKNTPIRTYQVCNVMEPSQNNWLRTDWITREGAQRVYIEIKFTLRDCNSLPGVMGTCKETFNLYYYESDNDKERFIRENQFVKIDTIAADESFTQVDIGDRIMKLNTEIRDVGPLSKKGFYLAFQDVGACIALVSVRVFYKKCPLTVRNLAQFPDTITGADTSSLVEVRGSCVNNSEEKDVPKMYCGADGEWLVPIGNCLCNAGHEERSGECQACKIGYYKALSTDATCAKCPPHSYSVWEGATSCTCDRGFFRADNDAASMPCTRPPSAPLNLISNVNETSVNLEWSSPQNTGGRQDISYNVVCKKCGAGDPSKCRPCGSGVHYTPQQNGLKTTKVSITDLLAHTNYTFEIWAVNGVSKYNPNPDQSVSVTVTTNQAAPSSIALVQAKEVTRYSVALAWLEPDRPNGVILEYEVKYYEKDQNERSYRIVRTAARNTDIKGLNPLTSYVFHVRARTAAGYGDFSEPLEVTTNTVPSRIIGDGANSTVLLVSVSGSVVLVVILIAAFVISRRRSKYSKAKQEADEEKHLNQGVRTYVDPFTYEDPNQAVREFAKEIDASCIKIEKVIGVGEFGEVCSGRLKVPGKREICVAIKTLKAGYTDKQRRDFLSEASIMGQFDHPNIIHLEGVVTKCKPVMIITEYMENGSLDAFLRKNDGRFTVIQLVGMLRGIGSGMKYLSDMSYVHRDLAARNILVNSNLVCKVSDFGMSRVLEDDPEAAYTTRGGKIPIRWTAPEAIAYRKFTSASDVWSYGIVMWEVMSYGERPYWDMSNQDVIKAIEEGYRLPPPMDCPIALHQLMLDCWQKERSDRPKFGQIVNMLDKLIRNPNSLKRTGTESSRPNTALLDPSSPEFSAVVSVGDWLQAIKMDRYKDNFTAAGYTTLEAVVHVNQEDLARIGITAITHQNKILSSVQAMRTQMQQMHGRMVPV", "experiment": "KinomeScan", "type": "binding", "settings": "1uM"}, "LRRK2": {"target": "T22, LRRK2 (Homo sapiens, UniProt Q5S007)", "T22 construct": "purchased DiscoveRx KINOMEscan", "experiment": "KinomeScan", "type": "binding", "settings": "1uM"}, "RET": {"target": "T23, RET (Homo sapiens, UniProt P07949)", "T23 construct": "purchased DiscoveRx KINOMEscan", "experiment": "KinomeScan", "type": "binding", "settings": "1uM"}, "PLK2": {"target": "T24, PLK2 (Homo sapiens, UniProt Q9NYY3)", "T24 construct": "purchased DiscoveRx KINOMEscan", "experiment": "KinomeScan", "type": "binding", "settings": "1uM"}, "SBK1": {"target": "T25, SBK1 (Homo sapiens, UniProt Q52WX2)", "T25 construct": "purchased DiscoveRx KINOMEscan", "experiment": "KinomeScan", "type": "binding", "settings": "1uM"}, "YANK1": {"target": "T26, YANK1 (Homo sapiens, UniProt Q8WU08)", "T26 construct": "purchased DiscoveRx KINOMEscan", "experiment": "KinomeScan", "type": "binding", "settings": "1uM"}, "PIP5K2B": {"target": "T27, PIP5K2B (Homo sapiens, UniProt P78356)", "T27 construct": "purchased DiscoveRx KINOMEscan", "experiment": "KinomeScan", "type": "binding", "settings": "1uM"}, "PI3Kβ": {"target": "T28, PI3Kβ (Mus musculus, UniProt Q8BTI9)", "T28 construct": "endogenous in cells; host or cells: NIH-3T3", "experiment": "PI3Ks isoform in cell EC50 assay (AKT phosphorylation, Western Blotting)", "type": "cell-based", "settings": "NIH-3T3, 5μM LPA, read-out: cellular EC50 PI3K Beta"}, "TNK2": {"target": "T29, TNK2 (Homo sapiens, UniProt Q07912)", "T29 construct": "purchased DiscoveRx KINOMEscan", "experiment": "KinomeScan", "type": "binding", "settings": "1uM"}, "ASK1": {"target": "T30, ASK1 (Homo sapiens, UniProt Q99683)", "T30 construct": "purchased DiscoveRx KINOMEscan", "experiment": "KinomeScan", "type": "binding", "settings": "1uM"}, "MAST1": {"target": "T31, MAST1 (Homo sapiens, UniProt Q9Y2H9)", "T31 construct": "purchased DiscoveRx KINOMEscan", "experiment": "KinomeScan", "type": "binding", "settings": "1uM"}, "PIK3C2G": {"target": "T32, PIK3C2G (Homo sapiens, UniProt O75747)", "T32 construct": "purchased DiscoveRx KINOMEscan", "experiment": "KinomeScan", "type": "binding", "settings": "1uM"}, "EGFR(L858R)": {"target": "T33, EGFR(L858R) (Homo sapiens, UniProt P00533, L858R)", "T33 construct": "purchased DiscoveRx KINOMEscan", "experiment": "KinomeScan", "type": "binding", "settings": "1uM"}, "STK33": {"target": "T34, STK33 (Homo sapiens, UniProt Q9BYT3)", "T34 construct": "purchased DiscoveRx KINOMEscan", "experiment": "KinomeScan", "type": "binding", "settings": "1uM"}, "MST3": {"target": "T35, MST3 (Homo sapiens, UniProt Q9Y6E0)", "T35 construct": "purchased DiscoveRx KINOMEscan", "experiment": "KinomeScan", "type": "binding", "settings": "1uM"}, "PIK3CA(Q546K)": {"target": "T36, PIK3CA(Q546K) (Homo sapiens, UniProt P42336, Q546K)", "T36 construct": "purchased DiscoveRx KINOMEscan", "T36 sequence (P42336 whole entry Q546K)": "as the sequence (P42336 whole entry I800L) above, with Q546K, L800I counted along it", "experiment": "KinomeScan", "type": "binding", "settings": "1uM"}}, "note": "pEC50, pIC50: −log10 of the molar value.", "data": [{"smiles": "Cc1nc(NC(=O)[C@@H](N)C(C)C)sc1-c1cnc(Cl)c(NS(=O)(=O)c2ccccc2)c1", "note": "[PI3KD-IN-015]", "values": [{"measurement": "KinomeScan CDC2L5", "setting": "CDC2L5", "value": 92}, {"measurement": "KinomeScan DCAMKL1", "setting": "DCAMKL1", "value": 61}, {"measurement": "KinomeScan RPS6KA5(Kin.Dom.1-N-terminal)", "setting": "[1]", "value": 100}, {"measurement": "KinomeScan RSK3(Kin.Dom.1-N-terminal)", "setting": "[2]", "value": 100}, {"measurement": "KinomeScan BRSK2", "setting": "BRSK2", "value": 100}, {"measurement": "KinomeScan FES", "setting": "FES", "value": 100}, {"measurement": "KinomeScan CTK", "setting": "CTK", "value": 93}, {"measurement": "KinomeScan RPS6KA4(Kin.Dom.2-C-terminal)", "setting": "[3]", "value": 83}, {"measurement": "KinomeScan PIM3", "setting": "PIM3", "value": 100}, {"measurement": "PARP cleavage (apoptosis)", "setting": "PARP cleavage; MEC-1 cell (CLL)", "value": "only weakly"}, {"measurement": "PARP cleavage (apoptosis)", "setting": "PARP cleavage; MOLM-13 cell (AML), HT cell (B-NHL)", "value": "apparent PARP cleavage"}, {"measurement": "KinomeScan PIM1", "setting": "PIM1", "value": 100}, {"measurement": "KinomeScan MST4", "setting": "MST4", "value": 86}, {"measurement": "KinomeScan ULK3", "setting": "ULK3", "value": 88}, {"measurement": "KinomeScan PIK3CA(I800L)", "setting": "PIK3CA(I800L)", "value": 0.5}, {"measurement": "KinomeScan EPHA5", "setting": "EPHA5", "value": 100}, {"measurement": "KinomeScan RSK2(Kin.Dom.2-C-terminal)", "setting": "[4]", "value": 100}, {"measurement": "KinomeScan PIK3CA(M1043I)", "setting": "PIK3CA(M1043I)", "value": 0}, {"measurement": "KinomeScan EGFR(L747-T751del,Sins)", "setting": "EGFR(L747-T751del,Sins)", "value": 100}, {"measurement": "pEC50", "setting": "PI3Kα [5]", "value": "< 5.52"}, {"measurement": "KinomeScan EGFR(L861Q)", "setting": "EGFR(L861Q)", "value": 95}, {"measurement": "KinomeScan PRKG1", "setting": "PRKG1", "value": 89}, {"measurement": "pIC50", "setting": "PI3Kα [6]", "value": 7.22}, {"measurement": "KinomeScan MEK1", "setting": "MEK1", "value": 100}, {"measurement": "KinomeScan PIK3CA(E542K)", "setting": "PIK3CA(E542K)", "value": 5.4}, {"measurement": "KinomeScan EPHA4", "setting": "EPHA4", "value": 100}, {"measurement": "KinomeScan LRRK2", "setting": "LRRK2", "value": 100}, {"measurement": "KinomeScan RET", "setting": "RET", "value": 100}, {"measurement": "KinomeScan PLK2", "setting": "PLK2", "value": 83}, {"measurement": "KinomeScan SBK1", "setting": "SBK1", "value": 66}, {"measurement": "KinomeScan YANK1", "setting": "YANK1", "value": 100}, {"measurement": "KinomeScan PIP5K2B", "setting": "PIP5K2B", "value": 100}, {"measurement": "pEC50", "setting": "PI3Kβ", "value": "< 5.52"}, {"measurement": "KinomeScan TNK2", "setting": "TNK2", "value": 100}, {"measurement": "KinomeScan ASK1", "setting": "ASK1", "value": 88}, {"measurement": "KinomeScan MAST1", "setting": "MAST1", "value": 100}, {"measurement": "KinomeScan PIK3C2G", "setting": "PIK3C2G", "value": 65}, {"measurement": "KinomeScan EGFR(L858R)", "setting": "EGFR(L858R)", "value": 100}, {"measurement": "KinomeScan STK33", "setting": "STK33", "value": 88}, {"measurement": "KinomeScan MST3", "setting": "MST3", "value": 96}, {"measurement": "KinomeScan PIK3CA(Q546K)", "setting": "PIK3CA(Q546K)", "value": 4.1}]}]}
